{"source": "patent KR20210021686A", "about": "“비천연 아미노산-결합 단백질, 및 이를 코딩하는 유전자가 도입된 형질전환체” (priority 2019, dated 2021)", "biological_target": "T1, Escherichia coli leucine-binding protein (류신-결합 단백질, LBP), wild type (WT), SEQ ID NO: 46, YFP-LBP fusion sensor (Escherichia coli, UniProt P04816)", "T1 construct": "made in house; host or cells: E. coli C321.ΔA (co-transformed with pEvol-CouA-RS)", "T1 sequence (P04816 24-369)": "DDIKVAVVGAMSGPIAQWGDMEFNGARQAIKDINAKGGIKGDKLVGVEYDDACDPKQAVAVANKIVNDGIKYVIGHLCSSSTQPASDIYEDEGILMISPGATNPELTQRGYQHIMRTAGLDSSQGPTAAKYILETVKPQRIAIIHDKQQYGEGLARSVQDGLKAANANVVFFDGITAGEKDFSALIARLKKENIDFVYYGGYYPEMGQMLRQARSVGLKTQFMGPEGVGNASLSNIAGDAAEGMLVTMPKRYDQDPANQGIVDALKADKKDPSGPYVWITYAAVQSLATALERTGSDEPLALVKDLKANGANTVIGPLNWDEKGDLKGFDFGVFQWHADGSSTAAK", "assay": "FRET titration, dissociation constant (Table 1), WT LBP", "settings": "50 mM NaH2PO4, 50 mM NaCl, pH 9.0", "data": [{"smiles": "CC(C)C[C@H](N)C(=O)O", "note": "[L-Leu, L-류신]", "values": [{"measurement": "Kd", "result": 410, "unit": "nM"}]}]}
